What all share (type): cell-based, human
For assay [1], the system named is cyclin D1. The assay can be described thus: RT-PCR cyclin D1 mRNA in U−2 OS cells. To be noted: 24 h. The protocol: (§1) Total RNA within cells was extracted by the RNAeasy™ Animal Long RNA Isolation Kit with Spin Column (Shanghai, Beyotime); the concentrations and OD260/OD280 and OD230/OD260 values were measured by NanoDrop. Five micrograms of RNA was used for reverse transcription; each sample was diluted to 16 μL, and 4 μL of synthesized premix solution (5×) was added, then the mixtures were placed in a 42 °C water bath for 10 min, then an 80 °C water bath for 10 min to deactivate reverse transcriptase. After reverse transcription, each sample was diluted to 140 μL. PCR amplification was carried out by the ABI700 real-time PCR system, and the amplification reaction was detected with a SYBR probe. After PCR, actin and GAPDH were used as internal references, and the relative standard curve method (2^−ΔΔcT) determined the relative expression of mRNA.

Assay [2] has as its system E-cadherin. The assay can be described thus: RT-PCR E-cadherin mRNA in U−2 OS cells. To be noted: 24 h. The procedure: as §1
In assay [3] the test system is U−2 OS cells. The assay can be described thus: RNA-seq differential gene expression. The settings on record: DS−1 6.25 µM, 24 h. The procedure:
Sample preparation: U−2 OS cells were seeded in a 10 cm culture dish, and we cultured them to the logarithmic growth phase, suctioned the previous medium, and added new medium with DS−1 at 0 and 6.25 μM; each group was repeated two times. After 24 h of culture, the dish was washed with PBS reagent 3 times. One milliliter of TRIzol reagent was added to every dish for cell lysate and then collected in centrifuge tubes.
Transcriptome sequencing and analysis were carried out by Novogene Bioinformatics Technology Co., Ltd. (Beijing, China).
Raw data in the fastq format were firstly processed through in-house Perl scripts. In this step, clean data were obtained by removing reads containing adapter or containing ploy-N and low-quality reads from raw data. […]
Reference genome and gene model annotation files were downloaded from the genome website directly. The index of the reference genome was built using Hisat2 v2.0.5 (https://github.com/DaehwanKimLab/hisat2, accessed on 4 May 2022), and paired-end clean reads were aligned to the reference genome using Hisat2 v2.0.5. FeatureCounts v1.5.0-p3 (https://github.com/byee4/featureCounts, accessed on 4 May 2022) was used to count the reads numbers mapped to each gene. Then the Fragments PerKilobase of transcript sequence per Millions […] (FPKMs) of each gene were calculated based on the length of the gene and reads’ count mapped to this gene. […]

Assay [4] relates to pAKT. As to the kind of experiment: Western blot pAKT. To be noted: 24 h. The protocol: Sample preparation: U−2 OS cells seeded in 10 cm Petri dishes were collected and washed with ice-cold PBS and RIPA lysis buffer with PMAF; phosphatase inhibitor was added, and the tubes were placed on ice for 30 min and vortexed for 30 s at intervals of 10 min. The samples were centrifuged at 12,000 g at 4 °C for 15 min, and the supernatants were collected in new centrifuge tubes. The protein samples were placed on ice, and the concentration of each protein sample was measured by the BCA kit (Thermo). The protein concentration was adjusted to the same by milli Q ultrapure water.
Loading and running the gel: Equal amounts of protein were loaded into the wells of the 10% SDS-PAGE gel, along with molecular weight markers, and 15 μg of total protein from the cell lysate was loaded. We then ran the gel for 45 min at 200 V.
Transferring the protein: We prepared the transfer stack as follows: negative plate, sponge, filter paper, gel, PVDF membrane, filter paper, sponge, and positive plate. The transfer was for 90 min at 200 mA.
Antibody staining: We blocked the membrane for 1 h at room temperature using 5% blocking solution, then incubated the membrane with appropriate dilutions of the primary antibody in the blocking solution overnight at 4 °C. We then washed the membrane with TBST reagent 3 times, 5 min each. Then, we incubated the membrane with the recommended dilution of labeled secondary antibody in blocking solution at room temperature for 1 h and washed the membrane with TBST reagent 3 times, 5 min each. For signal development, super-enhanced chemiluminescence detection reagents were added to the surface of the membrane for 1 min, then excess reagent was removed, and the membrane was covered in transparent plastic wrap. Images were acquired using darkroom development techniques for chemiluminescence and analyzed by Image J.
For orientation: A western blot detects proteins with antibodies after separation by electrophoresis.

Assay [5] relates to phospho−FOXO1. As to the kind of experiment: Western blot phospho−FOXO1. The procedure: Figure 3 DS−1 inhibited the expression of transcription factor FOXO1 in U−2 OS cells. (A) U−2 OS cells were treated with DS−1 at 0, 3.125, 6.25, and 12.5 μM, and the changes in FOXO1 were analyzed by immunofluorescent staining, followed by confocal microscopy imaging. (B) U−2OS cells were treated with DS−1 at 0, 3.125, 6.25, and 12.5 μM, and FOXO1 and pFOXO1 were analyzed by Western blot; the changes were presented in histograms (C,D). (E) U−2 OS cells were treated with DS−1 at 6.25 μM for 0, 12, 24, and 48 h, then FOXO1 was analyzed by Western blot, and the changes are presented in the histogram (F). (G) The pFOXO1/FOXO1 value is shown in the histogram. […]
Sample preparation: U−2 OS cells seeded in 10 cm Petri dishes were collected and washed with ice-cold PBS and RIPA lysis buffer with PMAF; phosphatase inhibitor was added, and the tubes were placed on ice for 30 min and vortexed for 30 s at intervals of 10 min. […] The protein samples were placed on ice, and the concentration of each protein sample was measured by the BCA kit (Thermo). […]
Antibody staining: We blocked the membrane for 1 h at room temperature using 5% blocking solution, then incubated the membrane with appropriate dilutions of the primary antibody in the blocking solution overnight at 4 °C. […] Images were acquired using darkroom development techniques for chemiluminescence and analyzed by Image J.

1 compound from paper PMC9231138, “Dihydrotanshinone I Enhances Cell Adhesion and Inhibits Cell Migration in Osteosarcoma U−2 OS Cells through CD44 and Chemokine Signaling” (Molecules, 2022) can be followed below.

Each structure is given as a SMILES string.

Consider `Cc1cccc2c3c(ccc12)C1=C(C(=O)C3=O)[C@@H](C)CO1` [DS−1, 15,16-Dihydrotanshinone I], for which the “cyclin D1 mRNA, fold of the control group” value in assay [1] (first of three DS−1 doses (2.5 µM per Fig. 5 legend)) is recorded as 0.27 ± 0.06 fold; in assay [1] (second of three DS−1 doses (5.0 µM per Fig. 5 legend)) it was 0.29 ± 0.06 fold; in assay [1] (third of three DS−1 doses (7.5 µM per Fig. 5 legend)) it was 0.20 ± 0.04 fold. Further, the figures for the “E-cadherin mRNA, fold of the control group” value in assay [2] (DS−1 2.5 µM), in assay [2] (DS−1 5.0 µM) and in assay [2] (DS−1 7.5 µM) were 1.21 ± 0.16 fold, 1.26 ± 0.25 fold and 1.61 ± 0.16 fold, respectively. Moreover, the “number of genes downregulated (of 23,517 detected)” value in assay [3] turned out to be 4643 genes. Further, the “number of genes upregulated (of 23,517 detected)” value in assay [3] amounted to 4104 genes. In addition, the entries for the “pAKT, fold of the control group” value in assay [4] (DS−1 5.0 µM) and in assay [4] (DS−1 7.5 µM) were 2.06 ± 0.08 fold and 2.10 ± 0.15 fold, respectively. Besides, the pAKT/AKT value entry in assay [4] (with the concentration of DS−1 (2.5, 5.0, 7.5 µM)) is listed as “increased”. The “phosphorylation of FOXO1 (pFOXO1/FOXO1 value)” value in assay [5] (with increasing concentration of DS−1, Image J) is on record as “increased”. Besides, in assay [5] (with the concentration of DS−1 (3.125, 6.25, 12.5 μM) and the time of treatment (6.25 μM, 12, 24, 48 h)), the “phospho−FOXO1” value is reported as “reduced”.
